Measurements published in patent US6492416B1, “4,5-diaryl-3(2H)-furanone derivatives as cyclooxygenase-2 inhibitors” (Pacific Corporation, priority 1999, dated 2002).
In brackets after ≈: the same amount, converted by molar mass.

Assays:
COX-2 = biological target: T1, COX-2 (Mus musculus, UniProt Q05769); experiment: Evaluation of COX-2 activity: PGE2 formation in aspirin-treated, LPS-stimulated mouse peritoneal macrophages; assay type: cell-based
T1 sequence (Q05769 18-604): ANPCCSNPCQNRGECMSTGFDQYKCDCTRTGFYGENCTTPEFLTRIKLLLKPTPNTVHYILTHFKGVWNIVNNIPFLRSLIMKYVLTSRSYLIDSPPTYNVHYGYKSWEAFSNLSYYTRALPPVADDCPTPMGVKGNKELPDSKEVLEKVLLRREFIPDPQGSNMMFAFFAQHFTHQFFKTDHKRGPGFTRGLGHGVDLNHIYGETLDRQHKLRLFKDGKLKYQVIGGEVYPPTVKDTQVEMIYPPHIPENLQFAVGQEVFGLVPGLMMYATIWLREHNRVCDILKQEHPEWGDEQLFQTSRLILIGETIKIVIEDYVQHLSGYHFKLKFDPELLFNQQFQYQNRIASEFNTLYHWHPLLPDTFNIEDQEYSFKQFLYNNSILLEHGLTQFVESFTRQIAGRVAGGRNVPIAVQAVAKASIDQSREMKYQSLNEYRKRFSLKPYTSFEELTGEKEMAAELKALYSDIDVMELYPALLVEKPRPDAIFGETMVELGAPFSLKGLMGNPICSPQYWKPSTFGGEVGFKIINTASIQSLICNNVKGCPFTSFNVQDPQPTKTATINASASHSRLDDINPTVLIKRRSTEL
In short: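 PGE2 output, quantified by radio- or enzyme-immunoassay, was read after 10 min exposure of cells to compound with 10 μM arachidonic acid. Cells were mouse peritoneal macrophages, COX-1 knocked out with 500 μM aspirin and COX-2 induced by 10 μg/ml LPS over 16 h. IC50 derived from 4–5 concentrations.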

COX-1 = biological target: T2, COX-1 (Mus musculus, UniProt P22437); experiment: Evaluation of COX-1 activity: PGE2 formation in mouse peritoneal macrophages without aspirin and LPS treatment; assay type: cell-based
T2 sequence (P22437 27-602): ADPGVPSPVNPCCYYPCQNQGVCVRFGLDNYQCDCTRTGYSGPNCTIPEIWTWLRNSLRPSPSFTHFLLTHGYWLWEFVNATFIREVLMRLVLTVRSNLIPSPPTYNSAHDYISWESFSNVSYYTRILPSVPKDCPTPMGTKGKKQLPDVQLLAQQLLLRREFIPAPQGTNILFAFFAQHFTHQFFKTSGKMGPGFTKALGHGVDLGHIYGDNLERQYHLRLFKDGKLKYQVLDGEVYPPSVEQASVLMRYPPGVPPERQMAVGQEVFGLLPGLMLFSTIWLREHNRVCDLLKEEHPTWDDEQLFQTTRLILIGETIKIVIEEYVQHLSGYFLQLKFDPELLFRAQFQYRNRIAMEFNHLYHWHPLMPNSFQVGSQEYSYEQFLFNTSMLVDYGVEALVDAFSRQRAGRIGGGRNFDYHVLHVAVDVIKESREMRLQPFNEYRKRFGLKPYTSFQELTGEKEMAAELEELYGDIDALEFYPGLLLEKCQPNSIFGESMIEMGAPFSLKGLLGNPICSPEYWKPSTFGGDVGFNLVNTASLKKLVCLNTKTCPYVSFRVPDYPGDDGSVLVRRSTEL
In short: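 Peritoneal macrophages from C57BL/6 mice, without aspirin or LPS treatment, were plated at 1×10^6 cells/ml and fixed 2 h at 37 °C. Cells were preincubated 10 min, then given 10 μM arachidonic acid plus compound for 10 min; PGE2 was measured by RIA or EIA. IC50 came from 4–5 concentrations.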

male SD rat = experiment: Gastric safety studies (Ulcer Index); assay type: in vivo; conditions: daily dose 30 mg/kg body weight oral for 7 days, mean of animals' scores
Protocol: Gastric safety for compounds of this invention was evaluated as follows [Otterness et al., Laboratory Models for Testing Nonsteroidal Anti-inflammatory Drugs in Nonsteroidal Anti-inflammatory Drugs; ed John Wiley & Sons pp 217-227 (1985); Wiley Interscience; New York]: A designated dose of a compound of this invention suspended in 1% methylcellulose solution was administered daily once for 7 days to a male SD rat by oral gavage. The animal was sacrificed and the inner wall of the stomach was examined visually 4 hours after the last administration (the 7th day administration). The gastric safety was assessed by the “Ulcer Index” as defined as the following scores: […]
Score 1: apparently normal stomach.
Score 2: one or more than one ulcer site of pin-point size only.
Score 3: erosions of 2 or fewer than 2, which may be accompanied by ulcers of pin-point size (an erosion is defied by any ulcerative lesion of any dimension greater than 1 mm).
Score 4: erosions more than 2, which may be accompanied by ulcers of pin-point size.
Score 5: erosions accompanied by hemorrhage.
In evaluating the gastric safety of a compound of this invention, usually 8 animals were used. The ulcer index for a compound was calculated by averaging of the ulcer index of each animal. The following Table 5 illustrates gastric safety of some COX-2 selective inhibitors of this invention.

[1] = Pharmacokinetic studies in rats; assay type: in vivo, rat; conditions: Example 393 orally administered to a SD rat at 10 mg/kg body weight; plasma, HPLC (FIG. 1)
Protocol: An appropriate amount of a compound suspended 1% aqueous methylcellulose solution was administered to a male SD rat by oral gavage. Blood samples were collected from the retro-orbital sinus at designated times over 24˜48 hours. Plasma was separated from each blood sample by centrifugation and the plasma was stored at 4° C. until analysis. The plasma samples prepared thereby were subjected to analysis by reverse phase HPLC (high performance liquid chromatography) using an appropriate internal standard.

[2] = system: male Sprague-Dawley (SD) rats; experiment: Carrageenan-induced foot edema in rats (CFE); assay type: in vivo; conditions: rat, paw volume 3 hours after Carrageenan
Protocol: An appropriate amount of a compound of this invention suspended in 1% methylcellulose (MC) solution was administered to male Sprague-Dawley (SD) rats weighing 150˜200 g by oral gavage. The volume of the administered vehicle for a compound of this invention was controlled to be smaller than 10 ml/kg body weight of the animal. One hour later, 0.1 ml of 1% Carrageenan saline solution was directly injected into the right paw of the rats to induce edema in the paw. The paw volumes at 0 hour and at 3 hours after the injection of Carrageenan were measured by using a displacement plethysmometer (Ugo Basile, Italy). The paw volumes were used to calculate % inhibition of CFE by an amount of a compound of this invention according to the following equation.
% Inhibition of CFE=(1−Δtreated/Δcontrol)×100
wherein Δtreated=[paw volume at three hours after the Carrageenan injection−paw volume right after Carrageenan injection] for a drug-administered rat, and Δcontrol=[paw volume at three hours after the Carrageenan injection−paw volume right after Carrageenan injection] for a rat without drug administration.
In order to determine the inhibitory activity of a compound of this invention at a dose, usually 5 to 8 animals were used both for drug-treated group and for control group.

ICR mice = experiment: Acetic acid-induced writhing test; assay type: in vivo, mouse; conditions: oral gavage
Protocol: ICR mice weighing 18˜22 g were maintained in a controlled lighting environment (12 hours on/12 hours off) and fasted overnight prior analgesic testing. Mice were administered with a compound of this invention dissolved in 10:10:80 ethanol/Tween 80/saline or vehicle only by oral gavage. The administered vehicle volume was controlled to be 10 ml/kg body weight. One hour later, the animals were treated with 0.2 ml of 1.2% acetic acid by peritoneal injection. 6 minutes later, the number of abdominal constrictions was counted for a 6 minutes period. The antinociceptive activity was expressed as the reduction in the number of abdominal constrictions, compared with that of the placebo group [J. Med. Chem. 39, 4942 (1996)]. ED50 of the mouse writhing test denotes a dose level at which the number of abdominal constrictions is half that of the placebo group. Ten animals per group were used for this study.

male SD rats [3] = experiment: Carrageenan-induced thermal hyperalgesia assay; assay type: in vivo, rat; conditions: 3 hours
Protocol: Male SD rats weighing 170˜220 g were fasted but with free access to water for at leat 16 hours prior to testing. The rats were administered with a compound of this invention suspended in 20 ml 0.5% methylcellulose/0.025% Tween-20, or with vehicle only. Then the rats were given […] of 1% carrageenan in saline or […] saline only into the plantar surface of the left hindpaw by injection. Three hours later, the nociceptive responses to thermal stimuli were assessed as follows: Rats, which were placed in a transparent plastic chamber with a glass floor, were allowed to acclimate to their environment for 10 minutes prior to the testing. The withdrawal latency period in seconds was determined for the control and the compound treated group, and a percent inhibition in the withdrawal latency was calculated to estimate the analgesic effect of the compound [Pain 32, 77 (1988)]. In this study 6 animals were used for each group.

male SD rats [4] = experiment: Antiinflammatory potency by adjuvant arthritis (AA); assay type: in vivo; conditions: daily oral dose day 14 to day 22, rat
Protocol: Arthritis was induced in male SD rats weighing 180-200 g by subcutaneous injection of Mycobacterium butyricum mixed in 0.1 ml of incomplete Freund's adjuvanat into the base of the tail. The foot volumes were measured using a displacement plethysomometer 14 days after the injection of the adjuvant. Animals with paw volumes greater than the normal paw volumes (without the adjuvant treatment) by 0.37 ml were selected, and then randomized. A designated daily dose of a compound of this invention, which was suspended in 1% aqueous methylcellulose solution, was administered to the randomized rats with arthritis by oral gavage daily once beginning on day 14 after the injection of the adjuvant. The administration of the compound continued till day 22 after the injection of the adjuvant, and the paw volumes were measured on daily basis using a displacement plethysmometer.
% Inhibition of AA=(1−Δtreated/Δcontrol)×100
wherein Δtreated=[(paw volume at day 22)/(paw volume at day 14)−1] for a drug-administered rat, and Δcontrol=[(paw volume at day 22)/(paw volume at day 14)−1] for a rat without drug administration.
ED50 value was determined b a dose-response curve for each compound.

Row | Structure (SMILES) | IC50, μg/ml COX-2 (COX-2) | IC50, μg/ml COX-1 (COX-1) | melting point | % Inhibition (CFE) ([2]; oral dose 3 mg/kg body weight) | further results
1 | CC(=O)c1ccc(C2=C(c3ccc(S(C)(=O)=O)cc3)OC(C)(C)C2=O)cc1 [Example 10, 4-(4-Acetylphenyl)-2,2-dimethyl-5-{4-(methylsulfonyl)phenyl}-3(2H)-furanone] | 0.3 µg/mL (≈ 0.78 µM) | 50 µg/mL (≈ 130 µM) | – | – | Ulcer Index (1˜5) (male SD rat): 1.2 ± 0.4
2 | C[S+]([O-])c1ccc(C2=C(c3cccc(Cl)c3)C(=O)C(C)(C)O2)cc1 (stereo not drawn) [Example 393, 4-(3-Chlorophenyl)-2,2-dimethyl-5-{4-(methylsulfinyl)phenyl}-3(2H)-furanone] | 0.3 µg/mL (≈ 0.831 µM) | 5 µg/mL (≈ 13.9 µM) | – | – | biotransformation of the sulfoxide group into the sulfonyl group [1]: biotransformed into the sulfonyl group
3 | COc1ccc2c(c1)c(CC(=O)O)c(C)n2C(=O)c1ccc(Cl)cc1 [indomethacin, reference compound] | – | – | – | – | % Inhibition (CFE) ([2]; oral dose 1 mg/kg body weight): 28%; ED50 (mouse writhing) (ICR mice): 7.4 mg/kg body weight; % Inhibition at 1.0 mg/kg body weight (rat hyperalgesia) (male SD rats [3]): 45%
4 | CCC1(C)OC(c2ccc(S(C)(=O)=O)cc2)=C(c2cccc(Cl)c2)C1=O (stereo not drawn) [Example 195] | – | – | 94 to 95 °C | 28% | IC50 (COX-2; read-out: IC50, μg/ml COX-2 (converted)): 0.0767 µM; IC50 (COX-1; read-out: IC50, μg/ml COX-1 (converted)): 12.8 µM
5 | CC1(C)OC(c2ccc(S(N)(=O)=O)cc2F)=C(c2cc(F)cc(F)c2)C1=O [Example 335] | 0.003 µg/mL (≈ 0.00755 µM) | 3 µg/mL (≈ 7.55 µM) | 185 to 187 °C | 32% | –
6 | C[S+]([O-])c1ccc(C2=C(c3cc(F)cc(F)c3)C(=O)C(C)(C)O2)cc1 (stereo not drawn) [Example 177, 4-(3,5-Difluorophenyl)-2,2-dimethyl-5-{4-(methylsulfinyl)phenyl}-3(2H)-furanone] | 5 µg/mL (≈ 13.8 µM) | 30 µg/mL (≈ 82.8 µM) | 133 to 134 °C | 37% | –
7 | CC1(C)OC(c2ccc(S(N)(=O)=O)cc2)=C(c2cc(F)ccc2F)C1=O [Example 157] | 0.038 µg/mL (≈ 0.1 µM) | 5.15 µg/mL (≈ 13.6 µM) | 182 to 183 °C | 41% | –
8 | CC1(C)OC(c2ccc(S(C)(=O)=O)cc2)=C(c2cccc(C(F)(F)F)c2)C1=O [Example 14] | – | – | 115 to 116 °C | 32% | Adjuvant Arthritis ED50 (male SD rats [4]): 0.06 mg/kg body weight

The next lines start with results.

Row | IC50, μg/ml COX-2 (COX-2) | IC50, μg/ml COX-1 (COX-1) | melting point | Structure (SMILES) | % Inhibition (CFE) ([2]; oral dose 3 mg/kg body weight) | further results
9 | 0.02 µg/mL (≈ 0.0505 µM) | 50 µg/mL (≈ 126 µM) | 149 to 150 °C | CC1(C)OC(c2ccc(S(N)(=O)=O)c(Cl)c2)=C(c2cccc(F)c2)C1=O [Example 369] | 28% | –
10 | 0.05 µg/mL (≈ 0.127 µM) | 30 µg/mL (≈ 76 µM) | 108 to 109 °C | CC1(C)OC(c2ccc(S(C)(=O)=O)c(F)c2)=C(c2cccc(Cl)c2)C1=O [Example 278] | 27% | –
11 | 0.003 µg/mL (≈ 0.00791 µM) | 10 µg/mL (≈ 26.4 µM) | 168 to 170 °C | CC1(C)OC(c2ccc(S(N)(=O)=O)cc2F)=C(c2cccc(F)c2)C1=O [Example 333] | 25% | –
12 | 0.03 µg/mL (≈ 0.0791 µM) | 3 µg/mL (≈ 7.91 µM) | 190 to 192 °C | CC1(C)OC(c2ccc(S(N)(=O)=O)c(F)c2)=C(c2ccc(F)cc2)C1=O [Example 303] | 30% | –
13 | 0.03 µg/mL (≈ 0.0791 µM) | 5 µg/mL (≈ 13.2 µM) | 178 to 179 °C | CC1(C)OC(c2ccc(S(N)(=O)=O)c(F)c2)=C(c2cccc(F)c2)C1=O [Example 302] | 27% | –
